In patent US6403626B1, “Benzimidazole derivatives” (Synaptic Pharmaceutical Corporation, priority 1994, dated 2002) one finds sedation and Ki data, which are given here for 2 molecules.

Structures are written as SMILES.

The test system of data set [1] is Adult rhesus monkeys (Macaca mulatta). Description: Sedation and muscle relaxation rating. The following applies: subcutaneous, cumulative dosing 0.1-3.2 mg/kg, versus clonidine 0.032-1.0 mg/kg. Format: in vivo. The text has this:
Subjects. Adult rhesus monkeys (Macaca mulatta) of either sex were housed individually with free access to water. They were fed fresh fruit weekly and approximately 40 biscuits (Purina Monkey Chow) daily.
Procedure. Monkeys were trained to receive subcutaneous injections while in their home cages; they were rated by one non-blind observer familiar with the individual subjects, according to modified rating scales for sedation and muscle relaxation (Table 2); Separate scales describe increasing degrees of sedation (as measured by responsiveness to stimuli) and muscle relaxation (as observed through changes in posture). Animals were injected in a cumulative dosing procedure with a 30 minute interinjection interval; observer rating on both scales took place approximately 15 minutes after each injection.
Design. […] The same three monkeys were typically studied under each se of conditions.

For data set [2], the target named is α2C Human Adrenergic Receptor (Homo sapiens, UniProt P18825). Description: Equilibrium competition binding, [3H] rauwolscine, membranes of transfected LM(tk-) cells.
Sequence of α2C Human Adrenergic Receptor (P18825 whole entry, looked up): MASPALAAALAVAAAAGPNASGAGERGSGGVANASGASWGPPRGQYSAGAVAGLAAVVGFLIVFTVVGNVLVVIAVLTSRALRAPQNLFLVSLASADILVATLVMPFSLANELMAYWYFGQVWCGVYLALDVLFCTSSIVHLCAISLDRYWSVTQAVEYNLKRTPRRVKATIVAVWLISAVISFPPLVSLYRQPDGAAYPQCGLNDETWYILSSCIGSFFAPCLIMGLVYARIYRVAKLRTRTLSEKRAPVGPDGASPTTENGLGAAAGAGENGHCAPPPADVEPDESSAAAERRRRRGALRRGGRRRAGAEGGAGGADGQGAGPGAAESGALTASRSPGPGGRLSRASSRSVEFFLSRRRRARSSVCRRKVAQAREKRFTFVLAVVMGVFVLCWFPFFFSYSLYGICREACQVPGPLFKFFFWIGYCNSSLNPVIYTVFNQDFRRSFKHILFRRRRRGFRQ

`Cc1c(N=C2NCCN2)ccc2[nH]cnc12` [Example 4, 4-Methyl-5-(2-imidazolin-2-ylamino)Benzimidazole]: the sedation result in data set [1] was “decreased sedation relative to the reference compound, clonidine”.

In the case of `FC(F)(F)c1nc2ccc(NC3=NCCN3)c(Br)c2[nH]1` [Example 46, 2-Trifluoromethyl-4-bromo-5-(2-imidazolin-2-ylamino)Benzimidazole], the Ki in data set [2] was determined as 1480 nM.

As a reminder, the Ki is the dissociation constant of the complex between target and ligand, obtained from inhibition or displacement. The low end stands for tighter binding, the high end for weaker binding.
